Experimental data from US20240158446A1, “CYCLIC COMPOUND HAVING SELECTIVE INHIBITORY ACTION ON KRAS OVER HRAS AND NRAS” (CHUGAI SEIYAKU KABUSHIKI KAISHA, priority 2021, published 2024).

Assays:
[1] = target: GDP-bound HRAS wild-type protein (Homo sapiens, UniProt P01112); experiment: Binding to HRAS by surface plasmon resonance (SPR), Single Cycle Kinetics; conditions: for HRAS/KRAS (ratio of KD value with respect to GDP-bound HRAS wild-type protein to KD value with respect to KRAS): SPR KD ratio HRAS/KRAS, class symbols
GDP-bound HRAS wild-type protein, sequence (P01112 whole entry): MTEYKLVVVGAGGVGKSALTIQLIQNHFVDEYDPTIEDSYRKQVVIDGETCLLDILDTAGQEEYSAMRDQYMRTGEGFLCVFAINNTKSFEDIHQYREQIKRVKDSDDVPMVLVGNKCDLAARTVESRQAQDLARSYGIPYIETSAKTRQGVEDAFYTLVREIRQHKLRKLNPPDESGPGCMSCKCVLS

[2] = target: GDP-bound NRAS wild-type protein (Homo sapiens, UniProt P01111); experiment: Binding to NRAS by surface plasmon resonance (SPR), Single Cycle Kinetics; conditions: for NRAS/KRAS (ratio of KD value with respect to GDP-bound NRAS wild-type protein to KD value with respect to KRAS): SPR KD ratio NRAS/KRAS, class symbols
GDP-bound NRAS wild-type protein, sequence (P01111 whole entry): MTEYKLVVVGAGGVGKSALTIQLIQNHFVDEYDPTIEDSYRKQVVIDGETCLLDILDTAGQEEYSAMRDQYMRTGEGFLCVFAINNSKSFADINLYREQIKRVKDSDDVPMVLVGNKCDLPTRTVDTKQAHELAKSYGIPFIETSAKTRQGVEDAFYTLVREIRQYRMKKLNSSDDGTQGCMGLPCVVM

[3] = SPR, GDP-bound HRAS wild-type protein vs GDP-bound KRAS wild-type protein
[4] = SPR, GDP-bound NRAS wild-type protein vs GDP-bound KRAS wild-type protein

SMILES	HRAS/KRAS (ratio of KD value with respect to GDP-bound HRAS wild-type protein to KD value with respect to KRAS) [1]	NRAS/KRAS (ratio of KD value with respect to GDP-bound NRAS wild-type protein to KD value with respect to KRAS) [2]	HRAS/KRAS (ratio of KD value for HRAS to KD value for KRAS) [1, 3]	NRAS/KRAS (ratio of KD value for NRAS to KD value for KRAS) [2, 4]	further results
CCO[C@@H]1C[C@H]2C(=O)NC3(CCC3)C(=O)N(C)[C@@H](C3CCCC3)C(=O)N(C)[C@H](C(=O)N(C)C)CC(=O)N(C)[C@@H](CC3CCCC3)C(=O)N[C@@H]([C@@H](C)CC)C(=O)N(C)CC(=O)N(C)[C@H]3C/C=C\CCN(C3=O)[C@@H](Cc3ccc(F)cc3C)C(=O)N(C)CC(=O)N[C@@H](CCc3cc(F)c(C(F)(F)F)c(F)c3)C(=O)N2C1 [PP1530]	–	–	–	–	HRAS/KRAS (ratio of KD value for HRAS to KD value for KRAS) ([1]; SPR, GDP-bound HRAS wild-type protein vs GDP-bound KRAS wild-type protein, KD ratio class): B (a compound having 3 or more and less than 10 is denoted as B); NRAS/KRAS (ratio of KD value for NRAS to KD value for KRAS) ([2]; SPR, GDP-bound NRAS wild-type protein vs GDP-bound KRAS wild-type protein, KD ratio class): A (a compound having 10 or more and less than 20 is denoted as A)
CC[C@H](C)[C@@H]1NC(=O)[C@H](CC2CC2)N(C)C(=O)C[C@@H](C(=O)N(C)CC)N(C)C(=O)[C@H](C2CCCC2)N(C)C(=O)C2(CC(C)(C)C2)NC(=O)[C@@H]2C[C@@H](F)CN2C(=O)[C@H](CCc2cc(F)c(C(F)(F)F)c(F)c2)NC(=O)CN(C)C(=O)[C@H](Cc2ccc(C)cc2)N2CC/C=C\C[C@@H](C2=O)N(C)C(=O)CN(C)C1=O [PP2802]	A (a compound having 10 or more and less than 20 is denoted as A)	AA (a compound having 20 or more is denoted as AA)	–	–	–
CCC[C@H]1C(=O)N[C@@H]([C@@H](C)CC)C(=O)N(C2CC2)CC(=O)N(C)[C@H]2C/C=C\CCN(C2=O)[C@@H](Cc2ccc(C)cc2)C(=O)N(C)CC(=O)N[C@@H](CCc2cc(F)c3c(c2)OCC3)C(=O)N2C[C@H](OCC)C[C@H]2C(=O)NC2(CC(C)(C)C2)C(=O)N(C)[C@@H](C2CCCC2)C(=O)N(C)[C@H](C(=O)N(C)C)CC(=O)N1C [PP2880]	A (a compound having 10 or more and less than 20 is denoted as A)	A (a compound having 10 or more and less than 20 is denoted as A)	–	–	–
CCC[C@H]1C(=O)N[C@@H](C2CCCC2)C(=O)N(C)CC(=O)N(C)[C@H]2C/C=C\CCN(C2=O)[C@@H](Cc2ccc(C)cc2)C(=O)N(C)CC(=O)N[C@@H](CCc2ccc(C(F)(F)F)c(OC)c2)C(=O)N2C[C@H](OCC)C[C@H]2C(=O)NC2(CC(C)(C)C2)C(=O)N(C)[C@@H](CC(C)(C)C)C(=O)N(C)[C@H](C(=O)N(C)C)CC(=O)N1C [PP3005]	–	–	B (a compound having 3 or more and less than 10 is denoted as B)	A (a compound having 10 or more and less than 20 is denoted as A)	–
CCC[C@H]1C(=O)N[C@@H]([C@@H](C)CC)C(=O)N(C)CC(=O)N(C)[C@H]2C/C=C\CCN(C2=O)[C@@H](Cc2ccc(C(F)(F)F)cc2)C(=O)N(C)CC(=O)N[C@@H](CCc2cc(Cl)c(C(F)(F)F)c(Cl)c2)C(=O)N2C[C@H](OCC)C[C@H]2C(=O)NC2(CC(C)(C)C2)C(=O)N(C)[C@@H](C2CCCC2)C(=O)N(C)[C@H](C(=O)N(C)C)CC(=O)N1C [PP2859]	A (a compound having 10 or more and less than 20 is denoted as A)	A (a compound having 10 or more and less than 20 is denoted as A)	–	–	–
CCO[C@@H]1C[C@H]2C(=O)NC3(CCC3)C(=O)N(C)[C@@H](C(CC)CC)C(=O)N(C)[C@H](C(=O)N3CCOCC3)CC(=O)N(C)[C@@H](CC(C)C)C(=O)N[C@@H]([C@@H](C)CC)C(=O)N(C)CC(=O)N(C)[C@H]3CCCCCN(C3=O)[C@@H](Cc3ccc(C(F)(F)F)cc3)C(=O)N(C)CC(=O)N[C@@H](CCc3cc(F)c(C(F)(F)F)c(F)c3)C(=O)N2C1 [PP0820]	–	–	B (a compound having 3 or more and less than 10 is denoted as B)	A (a compound having 10 or more and less than 20 is denoted as A)	–
CCCO[C@@H]1CCN2C(=O)[C@H](CCc3cc(F)c(C(F)(F)F)c(F)c3)NC(=O)CN(C)C(=O)[C@H](Cc3ccc(C(F)(F)F)cc3)N3CCCCC[C@@H](C3=O)N(C)C(=O)CN(C)C(=O)[C@H]([C@@H](C)CC)NC(=O)[C@H](CC(C)C)N(C)C(=O)C[C@@H](C(=O)N3CCOCC3)N(C)C(=O)[C@H](C3CCCC3)N(C)C(=O)C3(CCC3)NC(=O)[C@H]12 [PP1083]	–	–	B (a compound having 3 or more and less than 10 is denoted as B)	B (a compound having 3 or more and less than 10 is denoted as B)	–
CCC(CC)[C@H]1C(=O)N(C)[C@H](C(=O)N(C)C)CC(=O)N(C)[C@@H](COC)C(=O)N[C@@H]([C@@H](C)CC)C(=O)N(C)CC(=O)N(C)[C@H]2C/C=C\CCN(C2=O)[C@@H](Cc2ccc(C)cc2)C(=O)N(C)CC(=O)N[C@@H](CCc2cc(F)c(C(F)(F)F)c(F)c2)C(=O)N2CCCCC[C@H]2C(=O)NC2(CC(C)(C)C2)C(=O)N1C [PP2960]	A (a compound having 10 or more and less than 20 is denoted as A)	A (a compound having 10 or more and less than 20 is denoted as A)	–	–	–
CCC[C@H]1C(=O)N[C@@H]([C@@H](C)CC)C(=O)N(C)CC(=O)N(C)[C@H]2C/C=C\CCN(C2=O)[C@@H](Cc2ccc(C(F)(F)F)cc2)C(=O)N(C)CC(=O)N[C@@H](CCc2ccc3c(C)c(C)n(C)c3c2)C(=O)N2C[C@H](OCC)C[C@H]2C(=O)NC2(CC(C)(C)C2)C(=O)N(C)[C@@H](C(CC)CC)C(=O)N(C)[C@H](C(=O)N(C)C)CC(=O)N1C [PP2904]	A (a compound having 10 or more and less than 20 is denoted as A)	AA (a compound having 20 or more is denoted as AA)	–	–	–
CCC[C@@H]1C[C@H]2C(=O)NC3(CC(C)(C)C3)C(=O)N(C)[C@@H](C3CCCC3)C(=O)N(C)[C@H](C(=O)N(C)C)CC(=O)N(C)[C@@H](CCC)C(=O)N[C@@H]([C@@H](C)CC)C(=O)N(C)CC(=O)N(C)[C@H]3C/C=C\CCN(C3=O)[C@@H](Cc3ccc(C)cc3)C(=O)N(C)CC(=O)N[C@@H](CCc3ccc(C(F)(F)F)c(Cl)c3)C(=O)N2C1 [PP2214]	–	–	A (a compound having 10 or more and less than 20 is denoted as A)	A (a compound having 10 or more and less than 20 is denoted as A)	–
CCC[C@H]1C(=O)N[C@@H]([C@@H](C)CC)C(=O)N(C2CC2)CC(=O)N(C)[C@H]2C/C=C\CCN(C2=O)[C@@H](Cc2ccc(C)cc2)C(=O)N(C)CC(=O)N[C@@H](CCc2ccc(C(F)(F)F)c(OC)c2)C(=O)N2C[C@H](OCC)C[C@H]2C(=O)N(C)C2(CCC2)C(=O)N(C)[C@@H](C(CC)CC)C(=O)N(C)[C@H](C(=O)N(C)C)CC(=O)N1C [PP2325]	–	–	A (a compound having 10 or more and less than 20 is denoted as A)	A (a compound having 10 or more and less than 20 is denoted as A)	–
C=CCN1CC(=O)N(C)[C@H]2C/C=C\CCN(C2=O)[C@@H](Cc2ccc(C)cc2)C(=O)N(C)CC(=O)N[C@@H](CCc2ccc(C(F)(F)F)c(OC)c2)C(=O)N2C[C@H](OCC)C[C@H]2C(=O)NC2(CC(C)(C)C2)C(=O)N(C)[C@@H](C2CCCC2)C(=O)N(C)[C@H](C(=O)N(C)C)CC(=O)N(C)[C@@H](CC(C)C)C(=O)N[C@@H]([C@@H](C)CC)C1=O [PP2058]	–	–	A (a compound having 10 or more and less than 20 is denoted as A)	A (a compound having 10 or more and less than 20 is denoted as A)	–
CCO[C@@H]1C[C@H]2C(=O)NC3(CCC3)C(=O)N(C)[C@@H](C3CCCC3)C(=O)N(C)[C@H](C(=O)N(C)C)CC(=O)N(C)[C@@H](C)C(=O)N[C@@H]([C@H](C)CC)C(=O)N(C)CC(=O)N(C)[C@H]3CCCCCN(C3=O)[C@@H](Cc3ccc(C(F)(F)F)cc3)C(=O)N(C)CC(=O)N[C@@H](CCc3cc(F)c(C(F)(F)F)c(F)c3)C(=O)N2C1 [PP0729]	–	–	–	–	HRAS/KRAS (ratio of KD value with respect to HRAS to KD value with respect to KRAS) [1, 3]: B (a compound having 3 or more and less than 10 is denoted as B); NRAS/KRAS (ratio of KD value with respect to NRAS to KD value with respect to KRAS) [2, 4]: B (a compound having 3 or more and less than 10 is denoted as B)
CCC[C@H]1C(=O)N[C@@H]([C@@H](C)CC)C(=O)N(C)CC(=O)N(C)[C@H]2C/C=C\CCN(C2=O)[C@@H](Cc2ccc(C)cc2)C(=O)N(C)CC(=O)N[C@@H](CCc2cc(F)c(C(F)(F)F)c(F)c2)C(=O)N2C[C@H](OCC)C[C@H]2C(=O)NC2(CC(C)(C)C2)C(=O)N(C)[C@@H](CC2CC2)C(=O)N(C)[C@H](C(=O)N(C)C)CC(=O)N1C [PP2797]	A (a compound having 10 or more and less than 20 is denoted as A)	A (a compound having 10 or more and less than 20 is denoted as A)	–	–	–
CCOC[C@H]1C(=O)N[C@@H]([C@@H](C)CC)C(=O)N(C)CC(=O)N(C)[C@H]2C/C=C\CCN(C2=O)[C@@H](Cc2ccc(C)cc2F)C(=O)N(C)CC(=O)N[C@@H](CCc2ccc(C(F)(F)F)c(OC)c2)C(=O)N2C[C@@H](C)C[C@H]2C(=O)NC2(CC(C)(C)C2)C(=O)N(C)[C@@H](C2CCCC2)C(=O)N(C)[C@H](C(=O)N(C)CC)CC(=O)N1C [PP2697]	A (a compound having 10 or more and less than 20 is denoted as A)	A (a compound having 10 or more and less than 20 is denoted as A)	–	–	–
CC[C@H](C)[C@@H]1NC(=O)[C@H](CC(C)C)N(C)C(=O)C[C@@H](C(=O)N(C)C)N(C)C(=O)[C@H](C2CCCC2)N(C)C(=O)C2(CC(C)(C)C2)NC(=O)[C@@H]2C[C@@H](C)CN2C(=O)[C@H](CCc2cc(F)c(C(F)(F)F)c(F)c2)NC(=O)CN(C)C(=O)[C@H](Cc2ccc(C)cc2)N2CC/C=C\C[C@@H](C2=O)N(C)C(=O)CN(C)C1=O [PP2223]	–	–	A (a compound having 10 or more and less than 20 is denoted as A)	A (a compound having 10 or more and less than 20 is denoted as A)	–
